The text below walks through data of paper PMC3653934, “Identification of Adiponectin Receptor Agonist Utilizing a Fluorescence Polarization Based High Throughput Assay” (PLoS ONE, 2013).

In general, IC50 refers to the point on the concentration scale where inhibition reaches its midpoint.

The target in one assay is T1, AdipoR1 (Homo sapiens, UniProt Q96A54).
T1 construct: The cDNAs encoding full-length of AdipoR1 or AdipoR2 were then sub-cloned into the mammalian expression vector pBEX and pcDNA3.1–Myc-His(+); His (C); Myc (C); made in house; host or cells: CHO cells
T1 sequence (Q96A54 1-375): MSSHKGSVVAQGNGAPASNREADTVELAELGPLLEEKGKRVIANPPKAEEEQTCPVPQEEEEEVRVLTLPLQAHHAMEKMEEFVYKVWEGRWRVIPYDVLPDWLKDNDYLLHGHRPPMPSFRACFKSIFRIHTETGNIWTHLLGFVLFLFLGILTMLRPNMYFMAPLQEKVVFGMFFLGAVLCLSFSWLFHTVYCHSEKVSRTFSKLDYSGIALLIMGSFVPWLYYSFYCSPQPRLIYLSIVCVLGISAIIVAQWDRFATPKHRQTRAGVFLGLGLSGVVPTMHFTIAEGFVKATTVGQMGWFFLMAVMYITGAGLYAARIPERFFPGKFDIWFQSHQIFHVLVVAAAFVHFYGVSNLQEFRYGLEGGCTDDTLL
Nature of the assay: Competitive FP assay, displacement of probe 1 from AdipoR1. The assay is classed as binding. The note with it: 2 µM receptor, 100 nM probe 1, 30 min, 25°C. The protocol: (§1) Unlabeled short peptide 3 was titrated against the FITC-labeled peptide and adiponectin receptor mixture. Plates were incubated at room temperature for up to 3 hours or 30 min at different temperatures. FP values were taken and IC50 values were calculated.
(§2) Master mixtures containing fluorescein-labeled probe 1 and adiponectin receptor (AdipoR1 or AdiopR2, 2 µM and probe 1 at 100 nM) in a reaction volume of 19 µl were prepared and loaded to plates. The library compounds (10 µM –0.078 µM, half dilutions) were prepared separately and transferred into the assay plates. The first and last columns of each plate were used as positive and negative control wells. Wells containing the drug only were used as controls to detect auto-fluorescence of the compounds in the total fluorescence assay. After subtraction of the background signal, data was processed and the IC50 values were determined by non-linear least square fitting using SigmaPlot 11.0.
(§3) Given that the present study is a screening study, peptide 3 was chosen as the positive control for cost-efficiency purposes.
(§4) To optimize the FP assay properly, it was necessary to assess the stability of the FP assay. The conditions for the FP assay were established by testing various parameters including incubation temperature, time, TF values, ΔmP values, and DMSO tolerance. […] In summary, the competitive FP binding assay conditions ideal for identifying adiponectin receptor agonists are: i) 2 µM adiponectin receptor, ii) 100 nM probe 1, iii) 5% final DMSO concentration (v/v), and iv) incubation for 30 min at 25°C before reading the plate.
(§5) A pilot screen against the natural product library of 10,000 compounds described above was performed at screening concentrations of 10 µM to 0.078 µM (half serial dilutions) in 5% DMSO (v/v). Controls present in each assay plate consisted of 5% DMSO (negative control) or peptide 3 (positive control).
(§6) We screened a library of 10,000 natural compounds for adiponectin agonists. […] 46 compounds that could generate IC50 curves were identified as initial hits.

The next assay deals with T2, AdipoR2 (UniProt Q86V24).
T2 sequence (Q86V24 1-386): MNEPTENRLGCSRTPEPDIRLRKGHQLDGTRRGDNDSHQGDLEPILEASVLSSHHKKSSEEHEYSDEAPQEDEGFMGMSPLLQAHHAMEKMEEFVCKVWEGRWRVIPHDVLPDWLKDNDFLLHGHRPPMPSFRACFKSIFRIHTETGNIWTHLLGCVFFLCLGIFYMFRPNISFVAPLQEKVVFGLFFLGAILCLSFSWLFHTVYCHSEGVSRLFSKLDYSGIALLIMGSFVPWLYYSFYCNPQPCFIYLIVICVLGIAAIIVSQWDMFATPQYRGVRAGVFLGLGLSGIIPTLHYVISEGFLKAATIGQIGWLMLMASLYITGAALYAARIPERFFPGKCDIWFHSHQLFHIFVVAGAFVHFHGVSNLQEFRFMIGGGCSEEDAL
Nature of the assay: Competitive FP assay, displacement of probe 1 from AdipoR2. The note with it: 2 µM receptor, 100 nM probe 1, 30 min, 25°C. Format: binding, human. As for the experimental part: as §1, §2, §3, §4, §5, §6

Assay [1] relates to AMPK phosphorylation (AdipoR1 signaling) in MDA-MB-231 cells. Nature of the assay: Western blot of AMPK phosphorylation in MDA-MB-231 cells. Conditions: MDA-MB-231 cells treated at IC50 concentration for 6 h. Format: cell-based, human. The protocol: (§7) Cells were grown to 80% confluence, harvested and aliquoted into 100 mm dishes in serum free media. Cells were allowed to attach overnight and then the serum free media was removed and then cells were washed in PBS twice. Different doses of compounds were prepared in the normal media and added to different dishes for an additional 6 h. Cells were washed 3 times with ice-cold PBS and cell lysates were prepared by scraping cells into lysis buffer A (RIPA buffer, 2 mM dithiothreitol […], 1×Halt protease inhibitor cocktail (Thermo scientific), and 1×Halt phosphatase inhibitor cocktail (Thermo scientific)). The cells were allowed to swell on ice (5 min), after which the homogenate was centrifuged. The supernatants were transferred to fresh tubes and protein concentrations were determined using the Bio-Rad protein assay (Bio-Rad Laboratories, Inc.) per manufacturer’s instructions. Aliquots of the cell lysates were stored at −80°C.
(§8) Equal amounts of total protein (50 µg) were subjected to electrophoresis (10% tris-HCl, 1.0 mm gels) and transferred to nitrocellulose membranes. Membranes were blocked in TBS containing 0.05% Tween 20 (TBST) and 5% nonfat milk or 5% BSA for 1 hour at room temperature. Appropriately diluted primary antibodies were incubated in TBST/5% nonfat milk or TBST/5% BSA for 2 h at room temperature or overnight at 4 °C. Membranes were washed in TBST three times for 15 min each. Appropriately diluted secondary antibodies were incubated in superblock blocking buffers (Thermo Scientific) for 1 h at room temperature. Membranes were washed in TBST three times for 15 min. Proteins were detected by Amersham™ ECL plus western blotting detection system (GE healthcare). The following antibodies were used: anti-AdipoR1 M18, anti-AdipoR2 C12 (Santa Cruz Biotechnology, Santa Cruz, CA), anti-p-AMPKα(T172), anti-AMPKα, and anti-β-actin (Cell Signaling, Danvers, MA).
(§9) It is well established that adiponectin activates AMPK and p38 MAPK through AdipoR1 or PPARα through AdipoR2 to mediate its downstream signaling cascades, [9], [12], [14]. […] The levels of phosphorylation of AMPK and phosphorylation of PPARα were examined and the relative expression levels of the phospho-protein to the total expression of protein levels were quantified using ImageJ software (NIH) ( Fig. 3 ).
(§10) Figure 3 Effects of hit compounds on adiponectin receptor signaling pathways. […] A total 50 µg of cell lysate was loaded to each lane. Western blot was performed follow the protocol in materials and methods section.
Background: A western blot detects proteins with antibodies after separation by electrophoresis.

For assay [2], the system named is PPARα phosphorylation (AdipoR2 signaling) in MCF-7 cells. Kind of assay: Western blot of PPARα phosphorylation in MCF-7 cells. Format: cell-based, human. Conditions: MCF-7 cells treated at IC50 concentration for 6 h. As for the experimental part: as §7, §8, §9, §10
Where [3] appears, read: primary screen, read-out: IC50 vs AdipoR1 (µM) Primary screen.
The mark [4] stands for this setting: validation, read-out: IC50 vs AdipoR1 (µM) Validated.
Where [5] appears, read: primary screen, read-out: IC50 vs AdipoR2 (µM) Primary screen.
Setting [6] is: validation, read-out: IC50 vs AdipoR2 (µM) Validated.

Structures are written as SMILES. Where two headings read alike, the source gives them in different places. Bounds are passed on as bounds.

For `COc1cc2c(c(OC)c1OC)-c1c(cc(OC)c(OC)c1OC)C[C@H](C)[C@H](C)C2` [Compound 4, Deoxyschizandrin], the half-maximal inhibitory concentration (IC50) at AdipoR1 (setting [3]) was greater than 5 µM; on AdipoR1 (setting [4]), greater than 5 µM; at AdipoR2 (setting [5]) it was 3.5 µM; at AdipoR2 (setting [6]) it was 3.2 ± 0.7 µM. Besides, the “Effect on AMPK phosphorylation” value in assay [1] is recorded as “decreased”. Further, in assay [2], the “Effect on PPARα phosphorylation level” value was “increased”.

In the case of `CN(C)Cc1c[nH]c2ccccc12` [Compound 9, Gramine], the 50% inhibitory concentration (IC50) at AdipoR1 (setting [3]) came out at 4.5 µM; at AdipoR1 (setting [4]), 4.2 ± 0.5 µM; on AdipoR2 (setting [5]), 3.6 µM; on AdipoR2 (setting [6]), 3.2 ± 0.2 µM. In addition, the “Effect on AMPK phosphorylation” value in assay [1] is recorded as “elevated”. Moreover, the figures for the “Effect on PPARα phosphorylation level” value in assay [2] and in assay [2] (listed as gramine) were “inhibited” and “decreased”, respectively.

For the compound `C=C1C(=O)O[C@H]2[C@H]1CC/C(C)=C/CC[C@@]1(C)O[C@@H]21` [Compound 7, Parthenolide], the IC50 at AdipoR1 (setting [3]) was greater than 5 µM; at AdipoR1 (setting [4]), greater than 5 µM; at AdipoR2 (setting [5]), 1.5 µM; at AdipoR2 (setting [6]) it was 1.2 ± 0.1 µM. Moreover, the “Effect on AMPK phosphorylation” value in assay [1] was “no effect”. Moreover, the “Effect on PPARα phosphorylation level” value in assay [2] is “increased”.

`COc1ccc(C[C@H]2COC(=O)[C@@H]2Cc2ccc(O[C@@H]3O[C@H](CO)[C@@H](O)[C@H](O)[C@H]3O)c(OC)c2)cc1OC` [Compound 1, Arctiin]: the IC50 on AdipoR1 (setting [3]) was 1.2 µM; on AdipoR1 (setting [4]), 1.3 ± 0.2 µM; on AdipoR2 (setting [5]), greater than 5 µM; on AdipoR2 (setting [6]), greater than 5 µM. Moreover, in assay [1], the “Effect on AMPK phosphorylation” value is recorded as “elevated”. Further, the “Effect on PPARα phosphorylation level” value in assay [2] is on record as “inhibited”.

`COc1cc(C[C@H]2COC(=O)[C@@H]2Cc2ccc(O)c(OC)c2)ccc1O` [Compound 3, Matairesinol]: the IC50 was 0.9 µM at AdipoR1 (setting [3]), 0.8 ± 0.2 µM on AdipoR1 (setting [4]), greater than 5 µM at AdipoR2 (setting [5]) and greater than 5 µM on AdipoR2 (setting [6]). Further, the “Effect on AMPK phosphorylation” value in assay [1] is “elevated”. For the same compound, in assay [2], the “Effect on PPARα phosphorylation level” value was “inhibited”.
